Assay results as given in patent publication US10941157B2, “Pesticidal compositions and uses thereof” (Gilead Apollo, LLC, priority 2015, dated 2021).
In brackets after ≈: the same amount, converted by molar mass. Like-named read-outs stand apart in the source and are kept apart here.

Columns and labels:
Assay type in all cases: cell-based
[1] = tested on: Phytophthora capsici (Pc); assay: In vitro pathogen growth inhibition assay, Pc; details: 48 h
Outline: (§1)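 Value reported is the compound concentration reaching ≥90% growth inhibition, from OD readings at 24 and 48 h after blank subtraction, confirmed visually. Inoculum was spores diluted in 17% V8 medium, except Rs, using 1.5 mm mycelial plugs in ¼ PDB; actual compound concentration corrected via OD600.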

[2] = tested on: Fusarium moniliforme (Fm); assay: In vitro pathogen growth inhibition assay, Fm; details: Fusarium verticillioides
Outline: as §1

Diplodia maydis (Dm) = assay: In vitro pathogen growth inhibition assay, Dm; details: Stenocarpella maydis, 48 h
Outline: as §1

Rhizoctonia solani (Rs) = assay: In vitro pathogen growth inhibition assay, Rs (mycelial plugs); details: Rhizoctonia solani, 48 h, mycelial plugs
Outline: as §1

Septoria tritici (St) = assay: In vitro pathogen growth inhibition assay, St; details: Zymoseptoria tritici, 48 h
Outline: as §1

[3] = tested on: Collectotrichum graminicola (Cg); assay: In vitro pathogen growth inhibition assay, Cg; details: 48 h
Outline: as §1

[4] = tested on: Fusarium virguliforme (Fv); assay: In vitro pathogen growth inhibition assay, Fv
Outline: as §1

Botrtyis cinerea (Bc) = assay: In vitro pathogen growth inhibition assay, Bc; details: 48 h
Outline: as §1

[5] = ≥90% inhibition, 48 hours vs 2% DMSO control, read-out: Compound Concentration (ppm) sufficient for ≥90% inhibition of growth, Pc
[6] = ≥90% inhibition, 48 hours vs 2% DMSO control, read-out: Compound Concentration (ppm) sufficient for ≥90% inhibition of growth, Fm
[7] = ≥90% inhibition, 48 hours vs 2% DMSO control, read-out: Compound Concentration (ppm) sufficient for ≥90% inhibition of growth, Dm
[8] = ≥90% inhibition, 48 hours vs 2% DMSO control, read-out: Compound Concentration (ppm) sufficient for ≥90% inhibition of growth, Rs
[9] = ≥90% inhibition, 48 hours vs 2% DMSO control, read-out: Compound Concentration (ppm) sufficient for ≥90% inhibition of growth, St
[10] = ≥90% inhibition, 48 hours vs 2% DMSO control, read-out: Compound Concentration (ppm) sufficient for ≥90% inhibition of growth, Cg
[11] = ≥90% inhibition, 48 hours vs 2% DMSO control, read-out: Compound Concentration (ppm) sufficient for ≥90% inhibition of growth, Fv
[12] = ≥90% inhibition, 48 hours vs 2% DMSO control, read-out: Compound Concentration (ppm) sufficient for ≥90% inhibition of growth, Bc
[13] = ≥90% growth inhibition, 48 hours, vs 2% DMSO control, read-out: Compound Concentration (ppm) sufficient for ≥90% inhibition of Pc
[14] = ≥90% growth inhibition, 48 hours, vs 2% DMSO control, read-out: Compound Concentration (ppm) sufficient for ≥90% inhibition of Fm
[15] = ≥90% growth inhibition, 48 hours, vs 2% DMSO control, read-out: Compound Concentration (ppm) sufficient for ≥90% inhibition of Dm
[16] = ≥90% growth inhibition, 48 hours, vs 2% DMSO control, read-out: Compound Concentration (ppm) sufficient for ≥90% inhibition of Rs
[17] = ≥90% growth inhibition, 48 hours, vs 2% DMSO control, read-out: Compound Concentration (ppm) sufficient for ≥90% inhibition of St
[18] = ≥90% growth inhibition, 48 hours, vs 2% DMSO control, read-out: Compound Concentration (ppm) sufficient for ≥90% inhibition of Cg
[19] = ≥90% growth inhibition, 48 hours, vs 2% DMSO control, read-out: Compound Concentration (ppm) sufficient for ≥90% inhibition of Fv
[20] = ≥90% growth inhibition, 48 hours, vs 2% DMSO control, read-out: Compound Concentration (ppm) sufficient for ≥90% inhibition of Bc

| IC90 [1, 5] | IC90 [2, 6] | IC90 (Diplodia maydis (Dm); [7]) | IC90 (Rhizoctonia solani (Rs); [8]) | IC90 (Septoria tritici (St); [9]) | IC90 [3, 10] | IC90 [4, 11] | IC90 (Botrtyis cinerea (Bc); [12]) | IC90 [1, 13] | IC90 [2, 14] | IC90 (Diplodia maydis (Dm); [15]) | IC90 (Rhizoctonia solani (Rs); [16]) | IC90 (Septoria tritici (St); [17]) | IC90 [3, 18] | IC90 [4, 19] | IC90 (Botrtyis cinerea (Bc); [20]) | Compound |
| --- | --- | --- | --- | --- | --- | --- | --- | --- | --- | --- | --- | --- | --- | --- | --- | --- |
| > 50 mg/L | 2 mg/L (≈ 3.41 µM) | 50 mg/L (≈ 85.4 µM) | 50 mg/L (≈ 85.4 µM) | > 50 mg/L | 10 mg/L (≈ 17.1 µM) | 50 mg/L (≈ 85.4 µM) | 2 mg/L (≈ 3.41 µM) |  |  |  |  |  |  |  |  | COc1ccc(F)cc1[C@H](Cn1c(=O)n(C(C)(C)C(N)=O)c(=O)c2c(C)c(-n3cccn3)sc21)OC1CCOCC1 [Compound I-146] |
| > 50 mg/L | 2 mg/L (≈ 3.34 µM) | ≥ 10 mg/L | 10 mg/L (≈ 16.7 µM) | > 50 mg/L | 50 mg/L (≈ 83.4 µM) | 10 mg/L (≈ 16.7 µM) | 2 mg/L (≈ 3.34 µM) |  |  |  |  |  |  |  |  | COc1ccc(F)cc1[C@H](Cn1c(=O)n(C(C)(C)C(N)=O)c(=O)c2c(C)c(-n3cccn3)sc21)O[C@H]1CC[C@@H](O)CC1 [Compound I-150] |
| > 50 mg/L | 2 mg/L (≈ 3.2 µM) | 50 mg/L (≈ 80 µM) | 10 mg/L (≈ 16 µM) | > 50 mg/L | 50 mg/L (≈ 80 µM) | 10 mg/L (≈ 16 µM) | 10 mg/L (≈ 16 µM) |  |  |  |  |  |  |  |  | COc1ccccc1[C@H](Cn1c(=O)n(C(C)(C)C(=O)N2CC(O)C2)c(=O)c2c(C)c(-n3nccn3)sc21)OC1CCOCC1 [Compound I-156] |
| > 50 mg/L | 2 mg/L (≈ 3.28 µM) | 10 mg/L (≈ 16.4 µM) | 50 mg/L (≈ 82 µM) | ≥ 50 mg/L | ≥ 10 mg/L | ≥ 10 mg/L | 10 mg/L (≈ 16.4 µM) |  |  |  |  |  |  |  |  | COc1ccccc1[C@H](Cn1c(=O)n(C(C)(C)C(=O)NC(C)C)c(=O)c2c(C)c(-n3cccn3)sc21)OC1CCOCC1 [Compound I-157] |
| 50 mg/L (≈ 83.4 µM) | 2 mg/L (≈ 3.34 µM) | 50 mg/L (≈ 83.4 µM) | 10 mg/L (≈ 16.7 µM) | > 50 mg/L | > 50 mg/L | > 50 mg/L | 10 mg/L (≈ 16.7 µM) |  |  |  |  |  |  |  |  | COc1ccc(F)cc1[C@H](Cn1c(=O)n(C(C)(C)C(=O)O)c(=O)c2c(C)c(-n3nccn3)sc21)OC1CCC(=O)CC1 [Compound I-158] |
| > 50 mg/L | 2 mg/L (≈ 3.34 µM) | ≥ 50 mg/L | ≥ 10 mg/L | > 50 mg/L | ≥ 10 mg/L | 2 mg/L (≈ 3.34 µM) | 10 mg/L (≈ 16.7 µM) |  |  |  |  |  |  |  |  | COc1ccc(F)cc1[C@H](Cn1c(=O)n(C(C)(C)C(=O)N2CCCC2)c(=O)c2c(C)c(-n3cccn3)sc21)OCCO [Compound I-159] |
| > 50 mg/L | 2 mg/L (≈ 3.43 µM) | 10 mg/L (≈ 17.1 µM) | ≥ 50 mg/L | > 50 mg/L | ≥ 10 mg/L | 2 mg/L (≈ 3.43 µM) | 2 mg/L (≈ 3.43 µM) |  |  |  |  |  |  |  |  | COc1ccc(F)cc1[C@H](Cn1c(=O)n(C(C)(C)C(=O)NCC#N)c(=O)c2c(C)c(-n3nccn3)sc21)OC(C)C [Compound I-160] |
| > 50 mg/L | 2 mg/L (≈ 3.26 µM) | 50 mg/L (≈ 81.5 µM) | ≥ 2 mg/L | > 50 mg/L | 10 mg/L (≈ 16.3 µM) | 10 mg/L (≈ 16.3 µM) | 10 mg/L (≈ 16.3 µM) |  |  |  |  |  |  |  |  | COc1ccc(F)cc1[C@H](Cn1c(=O)n(C(C)(C)C(=O)N2CCCC2)c(=O)c2c(C)c(-n3cccn3)sc21)OC[C@H](C)O [Compound I-161] |
| > 50 mg/L | 2 mg/L (≈ 3.14 µM) | 10 mg/L (≈ 15.7 µM) | 2 mg/L (≈ 3.14 µM) | > 50 mg/L | 2 mg/L (≈ 3.14 µM) | 10 mg/L (≈ 15.7 µM) | 10 mg/L (≈ 15.7 µM) |  |  |  |  |  |  |  |  | COc1ccc(F)cc1[C@H](Cn1c(=O)n(C(C)(C)C(=O)N2CC=CC2)c(=O)c2c(C)c(-n3cccn3)sc21)OC1CCOCC1 [Compound I-162] |
|  |  |  |  |  |  |  |  | > 50 mg/L | 2 mg/L (≈ 3.32 µM) | ≥ 10 mg/L | 10 mg/L (≈ 16.6 µM) | > 50 mg/L | 50 mg/L (≈ 83.1 µM) | 2 mg/L (≈ 3.32 µM) | 10 mg/L (≈ 16.6 µM) | COCCO[C@@H](Cn1c(=O)n(C(C)(C)C(=O)NC(C)C)c(=O)c2c(C)c(-n3cccn3)sc21)c1cc(F)ccc1OC [Compound I-163] |
|  |  |  |  |  |  |  |  | > 50 mg/L | 2 mg/L (≈ 3.25 µM) | 10 mg/L (≈ 16.3 µM) | 50 mg/L (≈ 81.3 µM) | > 50 mg/L | 10 mg/L (≈ 16.3 µM) | 2 mg/L (≈ 3.25 µM) | 50 mg/L (≈ 81.3 µM) | COCCO[C@@H](Cn1c(=O)n(C(C)(C)C(=O)N2CCCC2)c(=O)c2c(C)c(-n3nccn3)sc21)c1cc(F)ccc1OC [Compound I-164] |
